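Cells were grown in 96-well plates and exposed to each compound for 48 hours at five concentrations; endpoints were interpolated linearly between bracketing concentrations, or set to the highest concentration if not reached. The concentration for 50% growth inhibition is given as GI50. TGI: total growth inhibition.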 A value given as a limit tells only on which side of the number the result lay.

One experiment concerns A498 renal. The experiment in a line: inhibition of tumour cell growth, NCI panel, 48 h.
`CCCCCCCCCCCCCCCCCC[n+]1ccc2c(C)c3c(c(C)c2c1)c1cc(O)ccc1n3CC`: the GI50 is 1.19 µM and the TGI came out at 3.86 µM.

Take `CCc1ccc2c(c1)N(CCO)C1=C(C(=O)OC1)C2c1cccc(Br)c1` (stereo unspecified): the GI50 was 0.373 µM and the TGI turned out to be 8.84 µM.

For the compound `CN(C)CCCn1c(=O)c2ccccc2c2ccccc21`, the GI50 is 15.7 µM and the TGI was determined as 30.6 µM.

For `O=c1[nH]c(=O)n(C2CC(O)C(COP(=O)(OCc3ccc([N+](=O)[O-])o3)N(CCCCCl)CC(O)CO)O2)cc1F` (stereo unspecified), the GI50 is 0.138 µM and the TGI amounted to 39.1 µM.

In the case of `O=C1OC(=O)C(=C\c2ccc3c(c2)OCO3)/C1=C/c1ccc2c(c1)OCO2`, the TGI is > 100 µM.

As to `CC(C)NCCCn1c(Sc2cc3c(cc2I)OCO3)nc2c(N)ncnc21`, the GI50 is 0.435 µM and the TGI amounted to 5.6 µM.

Consider `CC1(O)C=CC(=O)C=C1`, for which the TGI is > 78.6 µM.

As for `CN1C(=O)N(C)C2C1NN=c1s/c(=C\c3ccc(C(F)(F)F)cc3)c(=O)n12` (stereo unspecified), the GI50 is 2 µM and the TGI was 34.6 µM.

The next experiment has as its system HCC-2998 colon. Nature of the experiment: inhibition of tumour cell growth, NCI panel, 48 h.
With `Fc1ccc(C2SCc3nc4ccccc4n32)c(F)c1` (stereo unspecified), the TGI is > 100 µM.

Take `Fc1ccc(/C=N/n2c(-c3ccc(F)c(Cl)c3)nn(CNc3ccccc3C(F)(F)F)c2=S)cc1`: the GI50 was 89.7 µM and the TGI was > 100 µM.

As for `CN[C@@H](C)C(=O)N[C@H](C(=O)N1CCC[C@H]1C(=O)Nc1sc(-c2ncco2)nc1-c1ccccc1)C1CCCCC1`, the GI50 was 25.7 µM and the TGI was 65.7 µM.

As to `CC(=O)OC12C=C(C)C(C(C)C1)C1C(=O)N(CCN3CCOCC3)C(=O)C12` (stereo unspecified), the GI50 was > 100 µM and the TGI is > 100 µM.

For the compound `CC1=C2[C@@H](CC1)[C@]1(C)O[C@@](c3ccccc3)(C[C@H]1OC(=O)CO)[C@H]2OC(=O)/C=C/c1ccccc1`, the GI50 is 15.2 µM and the TGI was 31.6 µM.

Regarding `NC(=O)c1csc(C2OC(CO)C(O)C2O)n1` (stereo unspecified), the GI50 was 75.8 µM and the TGI was > 10000 µM.

Take `CCCN(CCS(C)(=O)=O)Cc1ccc(-c2ccc3ncnc(Nc4ccc(OCc5cccc(F)c5)c(Cl)c4)c3c2)o1`: the GI50 is > 25 µM and the TGI is > 25 µM.

In the case of `CC(C)C[C@H](NC(=O)CNC(=O)c1cc(Cl)ccc1Cl)B1OC(=O)CC(CC(=O)O)(C(=O)O)O1` (stereo partly specified), the GI50 is 0.0326 µM and the TGI amounted to 0.105 µM.

For `CCCCCCCCCCCCCCCCCC[n+]1ccc2c(C)c3c(c(C)c2c1)c1cc(O)ccc1n3CC`, the GI50 was 2.9 µM and the TGI was 20.6 µM.

Consider `CCc1ccc2c(c1)N(CCO)C1=C(C(=O)OC1)C2c1cccc(Br)c1` (stereo unspecified), for which the GI50 is 1.05 µM and the TGI came to 7.82 µM.

Consider `CN(C)CCCn1c(=O)c2ccccc2c2ccccc21`, for which the GI50 was 16.4 µM and the TGI came to 34.8 µM.

Take `O=c1[nH]c(=O)n(C2CC(O)C(COP(=O)(OCc3ccc([N+](=O)[O-])o3)N(CCCCCl)CC(O)CO)O2)cc1F` (stereo unspecified): the GI50 is 0.401 µM and the TGI was > 100 µM.

Regarding `O=C1OC(=O)C(=C\c2ccc3c(c2)OCO3)/C1=C/c1ccc2c(c1)OCO2`, the TGI is > 100 µM.

Consider `CC(C)NCCCn1c(Sc2cc3c(cc2I)OCO3)nc2c(N)ncnc21`, for which the GI50 was 0.28 µM and the TGI was determined as 11.6 µM.

Take `CC1(O)C=CC(=O)C=C1`: the TGI is > 100 µM.

As to `CN1C(=O)N(C)C2C1NN=c1s/c(=C\c3ccc(C(F)(F)F)cc3)c(=O)n12` (stereo unspecified), the GI50 is 2.68 µM and the TGI is > 100 µM.

The next experiment has as its system CCRF-CEM leukemia. Nature of the experiment: inhibition of tumour cell growth, NCI panel, 48 h.
For `Fc1ccc(C2SCc3nc4ccccc4n32)c(F)c1` (stereo unspecified), the TGI is > 100 µM.

With `Fc1ccc(/C=N/n2c(-c3ccc(F)c(Cl)c3)nn(CNc3ccccc3C(F)(F)F)c2=S)cc1`, the GI50 was 51.6 µM and the TGI is > 100 µM.

For `CN[C@@H](C)C(=O)N[C@H](C(=O)N1CCC[C@H]1C(=O)Nc1sc(-c2ncco2)nc1-c1ccccc1)C1CCCCC1`, the GI50 was 32.5 µM and the TGI is > 100 µM.

As for `CC(=O)OC12C=C(C)C(C(C)C1)C1C(=O)N(CCN3CCOCC3)C(=O)C12` (stereo unspecified), the GI50 is > 100 µM and the TGI was > 100 µM.

For `CC1=C2[C@@H](CC1)[C@]1(C)O[C@@](c3ccccc3)(C[C@H]1OC(=O)CO)[C@H]2OC(=O)/C=C/c1ccccc1`, the GI50 is 16.9 µM and the TGI turned out to be 56.9 µM.

With `NC(=O)c1csc(C2OC(CO)C(O)C2O)n1` (stereo unspecified), the GI50 is 15.6 µM.

Turning to `CCCN(CCS(C)(=O)=O)Cc1ccc(-c2ccc3ncnc(Nc4ccc(OCc5cccc(F)c5)c(Cl)c4)c3c2)o1`, the GI50 was 7.39 µM and the TGI was > 25 µM.

As for `CC(C)C[C@H](NC(=O)CNC(=O)c1cc(Cl)ccc1Cl)B1OC(=O)CC(CC(=O)O)(C(=O)O)O1` (stereo partly specified), the GI50 was 0.0299 µM and the TGI was > 100 µM.

For the compound `CCCCCCCCCCCCCCCCCC[n+]1ccc2c(C)c3c(c(C)c2c1)c1cc(O)ccc1n3CC`, the GI50 was 3.27 µM and the TGI came out at 34.2 µM.

Regarding `CCc1ccc2c(c1)N(CCO)C1=C(C(=O)OC1)C2c1cccc(Br)c1` (stereo unspecified), the GI50 is 0.351 µM and the TGI is 15.6 µM.

Turning to `CN(C)CCCn1c(=O)c2ccccc2c2ccccc21`, the GI50 is 22 µM and the TGI is > 100 µM.

As for `O=c1[nH]c(=O)n(C2CC(O)C(COP(=O)(OCc3ccc([N+](=O)[O-])o3)N(CCCCCl)CC(O)CO)O2)cc1F` (stereo unspecified), the GI50 is 0.0102 µM and the TGI is > 100 µM.

As to `O=C1OC(=O)C(=C\c2ccc3c(c2)OCO3)/C1=C/c1ccc2c(c1)OCO2`, the TGI is > 88.6 µM.

For the compound `CC(C)NCCCn1c(Sc2cc3c(cc2I)OCO3)nc2c(N)ncnc21`, the GI50 was 0.425 µM and the TGI was > 100 µM.

With `CC1(O)C=CC(=O)C=C1`, the TGI was > 77 µM.

With `CN1C(=O)N(C)C2C1NN=c1s/c(=C\c3ccc(C(F)(F)F)cc3)c(=O)n12` (stereo unspecified), the GI50 is 0.955 µM and the TGI was > 100 µM.
